In brackets after ≈: the same amount, converted by molar mass.
Columns and labels:
cystathionine synthetase = conditions: synthesis of cystathionine from serine; cited from earlier work
E. coli TEM 2^+ = experiment: Agar dilution assay, M.I.C.; format: cell-based
Description: (§1) Representative 3-halovinylglycines and amino acid conjugates were tested for antibacterial activity by an agar dilution assay [being an modification of the antagonist-free-medium assay described in: Antimicrobial Agents and Chemotherapy, May 1979, pp 677-683 and pp 684-695]. Compounds asayed include (L) and (D)-3-chlorovinylglycine (HCL salts), (L) norvalyl-(L), (D), and (DL)-3-chlorovinylglycine (CF3 COOH salts), and (L) norvalyl-(L), (D), and (DL)-3 fluorovinylglycine (CF3 COOH) salts.
(§2) The antibacterial activity of the representative structure I compounds versus eleven representative strains of pathogenic bacteria is shown in the following Table.
(§3) Agar Dilution Asay [minimum inhibitory concentration (M.I.C.)-mg/ml]

Ent. cloacae P99^- = experiment: Agar dilution assay, M.I.C.; format: cell-based
Description: as §1, §2, §3

Prot. vulgaris = experiment: Agar dilution assay, M.I.C.; format: cell-based
Description: as §1, §2, §3

K. pneumoniae = experiment: Agar dilution assay, M.I.C.; format: cell-based; conditions: for minimum inhibitory concentration (M.I.C.): agar dilution, K. pneumoniae
Description: as §1, §2, §3

Ps. aeruginosa = experiment: Agar dilution assay, M.I.C.; format: cell-based
Description: as §1, §2, §3

S. aureus = experiment: Agar dilution assay, M.I.C.; format: cell-based; conditions: for minimum inhibitory concentration (M.I.C.): agar dilution, S. aureus
Description: as §1, §2, §3

Ser. marcescens = experiment: Agar dilution assay, M.I.C.; format: cell-based
Description: as §1, §2, §3

Sal. typhimurium = experiment: Agar dilution assay, M.I.C.; format: cell-based
Description: as §1, §2, §3

Strep. faecalis = experiment: Agar dilution assay, M.I.C.; format: cell-based
Description: as §1, §2, §3

E. coli DC2 = experiment: Agar dilution assay, M.I.C.; format: cell-based
Description: as §1, §2, §3

E. coli = experiment: Agar dilution assay, M.I.C.; format: cell-based
Description: as §1, §2, §3

[1] = system: eleven representative strains of pathogenic bacteria; experiment: Agar dilution assay, panel of eleven strains; format: cell-based; conditions: for number of test species against which activity is shown: M.I.C. equal to or less than 256 indicates antibacterial activity
Description: as §1, §2

SMILES | inactivation of cystathionine synthetase (in words) (cystathionine synthetase) | minimum inhibitory concentration (M.I.C.) (E. coli TEM 2^+) [mg/mL] | minimum inhibitory concentration (M.I.C.) (Ent. cloacae P99^-) [mg/mL] | minimum inhibitory concentration (M.I.C.) (Prot. vulgaris) [mg/mL] | minimum inhibitory concentration (M.I.C.) (K. pneumoniae) [mg/mL] | minimum inhibitory concentration (M.I.C.) (Ps. aeruginosa) [mg/mL] | minimum inhibitory concentration (M.I.C.) (S. aureus) [mg/mL] | minimum inhibitory concentration (M.I.C.) (Ser. marcescens) [mg/mL] | minimum inhibitory concentration (M.I.C.) (Sal. typhimurium) [mg/mL] | minimum inhibitory concentration (M.I.C.) (Strep. faecalis) [mg/mL] | minimum inhibitory concentration (M.I.C.) (E. coli DC2) [mg/mL] | minimum inhibitory concentration (M.I.C.) (E. coli) [mg/mL] | number of test species against which activity is shown [1] | antibacterial activity compared with the (L,D) diastereomer ([1]; antibacterial agar dilution assay) | antibacterial activity (in words) (K. pneumoniae; vs K. pneumoniae) | antibacterial activity (in words) (S. aureus; vs S. aureus)
C=C(Cl)C(N)C(=O)O (racemic) [racemic 3-chlorovinylglycine, 2-amino-3-chloro-3-butenoic acid] | not being an inactivator |  |  |  |  |  |  |  |  |  |  |  |  |  |  | 
C=C(F)[C@H](NC(=O)[C@@H](N)CCC)C(=O)O.O=C(O)C(F)(F)F [(L)-NVA-(L)-F-vinylgly, (L,L)-Norvalyl-3-fluorovinylglycine trifluoroacetate] |  | 16 | 32 | 32 | 2 | > 256 | > 256 | 64 | 128 | 64 | 2 | 4 | 9 of 11 | more active |  | 
C=C(F)C(NC(=O)[C@@H](N)CCC)C(=O)O (stereo partly drawn) [(L)-NVA-(DL)-F-vinylgly, (L,DL)-Norvalyl-3-fluorovinylglycine trifluoracetate] |  | 128 (≈ 587 mM) | 64 (≈ 293 mM) | > 256 | 128 (≈ 587 mM) | > 256 | 1.0 (≈ 4.58 mM) | 256 (≈ 1170 mM) | 256 (≈ 1170 mM) | > 256 | 4 (≈ 18.3 mM) | 8 (≈ 36.7 mM) |  |  |  | 
CCC[C@H](N)C(=O)N[C@H](C=CCl)C(=O)O [(L)-NVA-(D)-Cl-vinylgly, L-norvalyl-D-3-chlorovinylglycine] |  | 256 (≈ 1090 mM) |  | > 256 | 64 (≈ 273 mM) | > 256 | 16 (≈ 68.2 mM) |  |  | 128 (≈ 545 mM) | 32 (≈ 136 mM) | > 256 |  |  |  | 
C=C(Cl)C(NC(=O)[C@@H](N)CCC)C(=O)O (mixture of isomers) [(L)-NVA-(DL)-Cl-vinylgly, L-norvalyl-D,L-3-chlorovinylglycine] |  | > 256 |  | 256 | 32 | > 256 | ≤ 0.25 | > 256 | 256 | 4 | 4 | 128 |  |  |  | 
C=C(F)[C@@H](NC(=O)[C@@H](N)CCC)C(=O)O.O=C(O)C(F)(F)F [(L)-NVA-(D)-F-vinylgly, (L,D)-Norvalyl-3-fluorovinylglycine trifluoroacetate] |  | > 256 |  | > 256 | > 256 | > 256 | > 256 | > 256 | > 256 | > 256 | > 256 | > 256 |  |  |  | 
N[C@@H](C=CCl)C(=O)O [(L)Cl vinylgly, L-3-chlorovinylglycine] |  | > 256 |  | > 256 | 256 (≈ 1890 mM) | > 256 | 128 (≈ 944 mM) | > 256 | > 256 |  |  | > 256 |  |  | exhibits antibacterial activity | exhibits antibacterial activity
C=C(Cl)[C@H](NC(=O)[C@@H](N)CCC)C(=O)O.O=C(O)C(F)(F)F [(L)-NVA-(L)-Cl-vinylgly, (L,L)-Norvalyl 3-chlorovinylglycine trifluoroacetate] |  | 8 |  | 256 | 2 | > 256 | 0.5 | > 256 | 64 | 4 | 1 | 32 | 8 of 11 |  |  | 

Reference: patent US4727062A, “3-Halovinylglycine antibacterial agents” (Merck & Co., Inc., priority 1986, dated 1988)
